The results in this text go back to patent US9399631B2, “Polyphenol proteasome inhibitors, synthesis, and methods of use” (UNIVERSITY OF SOUTH FLORIDA, priority 2003, dated 2016).

Bounds are passed on as bounds.

Holding throughout (format): cell-based, human
In one assay the test system is LNCaP cells. The experiment in a line: Western blot of proteasome target proteins in LNCaP cells. Particulars: for increase of IκB-α levels / increase of p27 levels / Bax protein levels / apoptosis-specific PARP cleavage: 10 μM; for increase of IκB-α levels / increase of p27 levels: 12 hour treatment; for Bax protein levels / apoptosis-specific PARP cleavage: 24 hours. The procedure, abridged:
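LNCaP cells exposed to 25 μM (−)- or (+)-EGCG-amide for up to 9 h, or synthetic analogs for indicated hours. Whole-cell extracts (60 μg protein) probed by ECL Western blot for p27, IκB-α, Bax and polyubiquitinated proteins; p27 or IκB-α quantified as ratio to actin band intensity.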
In general terms: A western blot detects proteins with antibodies after separation by electrophoresis.

The subject of a further assay is Jurkat T cells. The experiment in a line: Western blot of proteasome target proteins in Jurkat T cells. Particulars: for increase of IκB-α protein levels: at 6 hours. On the procedure: (§1) Cell Culture, Cell Extract Preparation, and Western Blot Assay. Human leukemia Jurkat T and prostate cancer LNCaP cells were cultured in RPMI 1640 medium supplemented with 10% fetal calf serum, 100 units/ml of penicillin, and 100 μg/ml streptomycin. Human immortalized, non-transformed NK cells (YT cell line) (38) were cultured in RPMI 1640 supplemented with 1 mM MEM sodium pyruvate solution, 0.1 mM MEM non-essential amino acids solution, 10% fetal calf serum. 100 units/ml penicillin, and 100 μg/ml streptomycin. Normal (WI-38) and simian virus 40 (SV40)-transformed (VA-13) human fibroblasts were grown in Dulbecco's modified Eagle's medium supplemented with 10% fetal calf serum, 100 units/ml of penicillin and 100 μg/ml of streptomycin. All cells were maintained at 37° C. in a humidified incubator with an atmosphere of 5% CO2. A whole cell extract was prepared in accordance with An et al. (An, B. et al. Cell Death Differ, 1998, 5:1062-75). Briefly, cells were harvested, washed with PBS twice, and homogenized in a lysis buffer [50 mM Tris-HCl (pH 8.0), 5 mM EDTA, 150 mM NaCl, 0.5% NP-40, 0.5 mM phenylmethylsulfonyl fluoride, and 0.5 mM dithiothreitol] for 30 min at 4° C. Afterwards, lysates were centrifuged at 12,000×g for 15 min at 4° C., and the supernatants were collected as whole cell extracts. Equal amounts of protein extract (60 μg) were resolved by SDS-polyacrylamide gel electrophoresis and transferred to a nitrocellulose membrane using a Semi-Dry Transfer system (BIO-RAD, Hercules, Calif.). Jurkat T, LNCaP, or DU-145 cells were treated with various concentrations of synthetic or natural tea polyphenols for indicted hours. The enhanced chemiluminescence (ECL) Western blot analysis was then performed using specific antibodies to the proteins of interest (p^27kip, IκB-α, PARP, Bax or actin). The ratio of p27 or IκB-α to the corresponding actin was determined by scanning intensities of the protein bands.
Immortalized, non-transformed normal natural killer (NK) cells (YT line) (Drexler, H. G. et al. Leuk Res, 2000, 24:881-911) and human leukemic Jurkat T cells (as a control) were treated with either (−)-EGCG (as a comparison) or (−)-EGCG-amide for up to 12 hour. […] In contrast, IκB-α expression in non-transformed NK cells was unchanged during each treatment, although the basal level (and the mobility) of IκB-α protein was higher in NK cells (FIGS. 13A and 13B).
Having discovered that the synthetic GTP analogs are potent and specific inhibitors of the proteasomal chymotrypsin-like activity in vitro (FIGS. 16A, 17A, 17B, and 17C), it was then determined whether the synthetic compounds could also be effective in inhibiting intact tumor cell proteasome activity. Because inhibition of the proteasome activity in tumor cells would result in increased levels of proteasome target proteins, levels of p27 and IκB-α proteins were measured by Western blot assay in Jurkat T cells treated with each GTP. After a 12 hour treatment, (+)-EGCG at 10 μM accumulated p27 and IκB-α levels by 3.5- and 3.1-fold, respectively (FIG. 18A). In comparison, the natural (−)-EGCG accumulated p27 and IκB-α, to a slightly lesser extent, by 2.7- and 2.1-fold, respectively (FIG. 18A). In addition, synthetic (+)-GCG increased p27 and IκB-α levels by 3.7- and 3.3-fold, respectively, similar to the results from (−)-GCG treatment (FIG. 18A).

The subject of another assay is VA-13 cells. The experiment in a line: Western blot of p27 in SV40-transformed VA-13 fibroblasts. The following applies: 25 μM. The procedure: as §1
Normal WI-38 and SV40-transformed VA-13 cell lines were treated with 25 μM of (−)-EGCG, (−)-EGCG-amide, (+)-EGCG, (+)-EGCG-amide, or GTP-1 for either 12 hours or 36 hours.

`O=C(OC1Cc2c(O)cc(O)cc2OC1c1cc(O)c(O)c(O)c1)c1cc(O)c(O)c(O)c1` (single isomer, unassigned; (+)) [(+)-EGCG]: in the assay on LNCaP cells, the “increase of IκB-α levels” value amounted to 2.6 fold, the “increase of p27 levels” value stood at 3.1 fold, the Bax protein levels entry was “significantly increased Bax protein levels” and the “apoptosis-specific PARP cleavage” value was “induced the apoptosis-specific PARP cleavage”. Also, in the assay on Jurkat T cells (10 μM, 12 hour treatment), the “accumulation of IκB-α levels” value was 3.1 fold, the “accumulation of p27 levels” value is recorded as 3.5 fold, the “increase in IκB-α levels as compared to (−)-EGCG” value is reported as 47% and the “increase in p27 levels as compared to (−)-EGCG” value was approximately 30%. Further, the “levels of p27 protein” value in the assay on VA-13 cells (12 hours) is “significantly increased levels of p27 protein”.

`O=C(OC1Cc2c(O)cc(O)cc2OC1c1cc(O)c(O)c(O)c1)c1cc(O)c(O)c(O)c1` (single isomer, unassigned; (+)) [(+)-GCG]: in the assay with LNCaP cells, the “increase of IκB-α levels” value stood at 3.7 fold and the “increase of p27 levels” value came to 5.8 fold. In the assay with Jurkat T cells (10 μM, 12 hour treatment), the “accumulation of IκB-α levels” value was determined as 3.3 fold and the “accumulation of p27 levels” value is on record as 3.7 fold.

Take `O=C(O[C@@H]1Cc2c(O)cc(O)cc2O[C@@H]1c1cc(O)c(O)c(O)c1)c1cc(O)c(O)c(O)c1` [(−)-EGCG, (−)-epigallocatechin-3-gallate, reference compound]: in the assay with LNCaP cells, the Bax protein levels entry is recorded as “significantly increased Bax protein levels” and the “apoptosis-specific PARP cleavage” value is “induced the apoptosis-specific PARP cleavage”. In addition, in the assay on LNCaP cells (50 μM, 3 to 12 hours), the “levels of Bax protein” value is “increased only at 12 hours”. In the assay with Jurkat T cells (10 μM, 12 hour treatment), the “accumulation of IκB-α levels” value is recorded as 2.1 fold and the “accumulation of p27 levels” value was found to be 2.7 fold. Also, in the assay with Jurkat T cells (treatment up to 12 hour), the “increase of IκB-α protein levels” value is listed as “up to 6 fold” and the “increase of p27 levels” value is 17 fold. Further, the “levels of p27 protein” value in the assay on VA-13 cells (12 hours) was “significantly increased levels of p27 protein”. The “levels of p27 protein” value in the assay on VA-13 cells (36 hours) is “accumulated p27 levels”.

`O=C(N[C@@H]1Cc2c(O)cc(O)cc2O[C@@H]1c1cc(O)c(O)c(O)c1)c1cc(O)c(O)c(O)c1` [(−)-EGCG-amide, (−)-[2R,3R]-N-[5,7-Dihydroxy-2-(3,4,5-trihydroxyphenyl)-chroman-3-yl]-3,4,5-trihydroxybenzamide]: the “levels of p27, IκB-α and Bax” value with LNCaP cells (25 μM, up to 9 hours) is “able to increase levels of p27, IκB-α and Bax by 3 hours”. Besides, the “increase of IκB-α protein levels” value in the assay on Jurkat T cells (treatment up to 12 hour) is not above 8 fold. Moreover, in the assay with VA-13 cells (12 hours), the “levels of p27 protein” value is “significantly increased levels of p27 protein”.
